Data published in patent publication US8124381B2, “Process and materials for production of glucosamine and N-acetylglucosamine” (Arkion Life Sciences, priority 2002, dated 2012).
Entries after “also recorded” stand apart in the source; their conditions may differ.

What was measured:
[1] = target: T1, E. coli glucosamine synthase GlmS*54 (Escherichia coli, UniProt P17169, A39T/G472S/R250C); experiment: Effects of phosphorylated sugars on glucosamine synthase; format: biochemical
T1 construct: made in house; host or cells: E. coli 7107-18 (printed '7017-18'; T7-glmS*54 integrated at galK) and strains derived from it; crude extract
Experimental: (§1) Glucosamine synthetase activity was examined in the presence of various phosphorylated sugars. Crude enzyme extracts was prepared from cells of 7017-18 grown in shake flasks for 24 hours with lactose induction.

[2] = target: glucose-6-P dehydrogenase (zwf) (Escherichia coli, UniProt P0AC53, A9V); experiment: Effect of phosphorylated amino sugars on glucose-6-P dehydrogenase; format: biochemical; conditions: in vitro, FIG. 16
Chain of glucose-6-P dehydrogenase (zwf) (P0AC53 whole entry A9V): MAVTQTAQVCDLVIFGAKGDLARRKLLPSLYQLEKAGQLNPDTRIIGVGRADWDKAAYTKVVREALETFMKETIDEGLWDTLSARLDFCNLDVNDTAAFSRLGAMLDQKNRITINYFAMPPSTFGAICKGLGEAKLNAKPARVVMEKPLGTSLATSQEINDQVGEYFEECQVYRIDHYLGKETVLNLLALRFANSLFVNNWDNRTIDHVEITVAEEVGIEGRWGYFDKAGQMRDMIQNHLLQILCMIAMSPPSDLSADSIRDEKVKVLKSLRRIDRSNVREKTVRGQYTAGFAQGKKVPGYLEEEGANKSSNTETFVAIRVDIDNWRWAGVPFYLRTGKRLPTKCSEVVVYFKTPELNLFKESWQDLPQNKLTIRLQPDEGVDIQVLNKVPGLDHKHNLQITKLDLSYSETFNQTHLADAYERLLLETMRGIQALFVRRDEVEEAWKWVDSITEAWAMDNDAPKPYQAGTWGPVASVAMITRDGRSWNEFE

[3] = target: T2, E. coli GlmS (glucosamine-6-phosphate synthase), wild type, SEQ ID NO:2 (strain 2123-12) (Escherichia coli, UniProt P17169); experiment: GlmS (glucosamine synthase) inhibition and Michaelis-Menten kinetics, crude extract of strain 2123-12; format: biochemical
T2 construct: made in house; host or cells: E. coli strain 2123-12 (T7-glmS integrated in the chromosome), crude cell extract
T2 sequence (P17169 2-609 limits assumed): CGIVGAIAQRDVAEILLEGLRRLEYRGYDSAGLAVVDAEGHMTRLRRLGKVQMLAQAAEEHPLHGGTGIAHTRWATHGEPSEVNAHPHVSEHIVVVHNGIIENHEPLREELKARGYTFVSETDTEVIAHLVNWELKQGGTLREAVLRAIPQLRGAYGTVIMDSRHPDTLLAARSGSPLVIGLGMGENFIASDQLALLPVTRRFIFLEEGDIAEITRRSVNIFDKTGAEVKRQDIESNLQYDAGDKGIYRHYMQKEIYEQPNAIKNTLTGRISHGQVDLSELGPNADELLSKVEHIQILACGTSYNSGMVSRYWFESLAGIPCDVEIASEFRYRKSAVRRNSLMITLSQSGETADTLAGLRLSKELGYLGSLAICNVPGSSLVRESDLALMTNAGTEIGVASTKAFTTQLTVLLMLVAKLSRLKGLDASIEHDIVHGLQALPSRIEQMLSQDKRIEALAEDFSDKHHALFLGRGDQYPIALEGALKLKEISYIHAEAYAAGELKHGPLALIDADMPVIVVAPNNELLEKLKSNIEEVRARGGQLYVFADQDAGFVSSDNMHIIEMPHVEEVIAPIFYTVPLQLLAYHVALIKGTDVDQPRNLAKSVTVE
Experimental: (§2) Different glucosamine synthetase enzymes, including native B. subtillus GlmS, native E. coli GlmS and mutant E. coli GlmS, were studied in vitro. Cells of various E. coli strains were grown in the M9A medium, harvested, and frozen. Cells extracts were prepared and the glucosamine synthetases were characterized and compared.
(§3) Enzyme sensitivities to the reaction product glucosamine-6-P were examined. […] This figure highlights the dramatic difference between the wild type GlmS and these mutant GlmS strains.
(§4) The Mutants 2123-54 and the B. subtilis enzyme have higher Ki values (Table 6). Measured Ki constants for several of these mutants are 4 to 8 times the value for the native enzyme in strain 2123-12. From shake flask studies it is apparent that decreased sensitivity to glucosamine-6-P allows higher glucosamine levels to accumulate.
(§5) These values are slightly higher than those obtained with the native enzyme.

[4] = target: T3, E. coli GlmS mutant GlmS*54, SEQ ID NO:6 (Ala39Thr, Arg250Cys, Gly472Ser) (strain 2123-54) (Escherichia coli, UniProt P17169, A39T/G472S/R250C); experiment: GlmS inhibition and Michaelis-Menten kinetics, crude extract of strain 2123-54; format: biochemical
T3 construct: made in house; host or cells: E. coli strain 2123-54 (lacZ::T7-glmS*54), crude cell extract
T3 sequence (P17169 2-609 A39T/R250C/G472S): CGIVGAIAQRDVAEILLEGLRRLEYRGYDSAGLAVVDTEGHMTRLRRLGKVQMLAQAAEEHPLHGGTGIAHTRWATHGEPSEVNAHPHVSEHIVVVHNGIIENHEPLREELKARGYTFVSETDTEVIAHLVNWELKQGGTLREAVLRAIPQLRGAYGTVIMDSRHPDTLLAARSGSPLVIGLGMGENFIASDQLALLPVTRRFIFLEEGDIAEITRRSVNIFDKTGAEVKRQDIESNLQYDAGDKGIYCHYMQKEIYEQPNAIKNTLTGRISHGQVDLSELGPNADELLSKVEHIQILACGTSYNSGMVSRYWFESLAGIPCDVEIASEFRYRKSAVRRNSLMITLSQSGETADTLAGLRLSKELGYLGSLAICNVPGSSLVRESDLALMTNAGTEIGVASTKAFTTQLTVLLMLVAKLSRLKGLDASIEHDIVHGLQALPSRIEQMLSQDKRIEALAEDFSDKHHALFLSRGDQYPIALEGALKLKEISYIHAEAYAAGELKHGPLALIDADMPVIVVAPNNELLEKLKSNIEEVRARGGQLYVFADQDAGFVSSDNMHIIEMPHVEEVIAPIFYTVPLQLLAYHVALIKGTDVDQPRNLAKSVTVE
Experimental: as §2, §3, §4, §5

[5] = target: E. coli GlmS mutant GlmS*110 (Escherichia coli, UniProt P17169); experiment: GlmS inhibition and Michaelis-Menten kinetics; format: biochemical; conditions: read-out: Ki (GlcN-6-P)
Chain of E. coli GlmS mutant GlmS*110 (P17169 whole entry, change not shown): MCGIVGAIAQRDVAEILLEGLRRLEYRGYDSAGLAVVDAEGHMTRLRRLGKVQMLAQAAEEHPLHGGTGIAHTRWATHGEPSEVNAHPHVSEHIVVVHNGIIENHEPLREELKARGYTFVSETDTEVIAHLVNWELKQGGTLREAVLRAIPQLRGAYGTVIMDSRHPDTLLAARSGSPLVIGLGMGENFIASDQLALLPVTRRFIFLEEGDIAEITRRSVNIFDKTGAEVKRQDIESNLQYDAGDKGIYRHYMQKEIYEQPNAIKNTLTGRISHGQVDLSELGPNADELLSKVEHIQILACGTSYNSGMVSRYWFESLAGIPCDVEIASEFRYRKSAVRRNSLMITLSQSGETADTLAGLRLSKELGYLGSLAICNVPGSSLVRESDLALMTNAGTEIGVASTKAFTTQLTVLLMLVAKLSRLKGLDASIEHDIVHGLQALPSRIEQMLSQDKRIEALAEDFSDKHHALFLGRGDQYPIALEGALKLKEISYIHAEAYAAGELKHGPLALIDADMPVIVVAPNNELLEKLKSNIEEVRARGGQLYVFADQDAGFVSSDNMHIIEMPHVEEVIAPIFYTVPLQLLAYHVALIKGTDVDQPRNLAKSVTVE
Experimental: as §2, §3, §4, §5

[6] = target: T4, E. coli GlmS mutant GlmS*124, SEQ ID NO:8 (Leu469Pro) (strain 2123-124) (Escherichia coli, UniProt P17169, L469P); experiment: GlmS inhibition and Michaelis-Menten kinetics; format: biochemical
T4 construct: made in house; host or cells: E. coli strain 2123-124, cell extract
T4 sequence (P17169 2-609 L469P): as the sequence (P17169 2-609 limits assumed) above, with L468P counted along it
Experimental: as §2, §3, §4, §5

[7] = target: E. coli GlmS mutant GlmS*69 (Escherichia coli, UniProt P17169); experiment: GlmS inhibition and Michaelis-Menten kinetics; format: biochemical; conditions: read-out: Ki (GlcN-6-P)
Chain of E. coli GlmS mutant GlmS*69 (P17169 whole entry, change not shown): as the sequence (P17169 whole entry, change not shown) above
Experimental: as §2, §3, §4, §5

[8] = target: T5, E. coli GlmS mutant GlmS*72, SEQ ID NO:14 (Glu15Lys, Asp387Val, Ser450Pro, Glu525Gly) (strain 2123-72) (Escherichia coli, UniProt P17169, D387V/E15K/E525G/S450P); experiment: GlmS inhibition and Michaelis-Menten kinetics; format: biochemical
T5 construct: made in house; host or cells: E. coli strain 2123-72 (from 7101-17(DE3), plasmid with glmS*72 integrated), cell extract
T5 sequence (P17169 2-609 E15K/D387V/S450P/E525G): as the sequence (P17169 2-609 limits assumed) above, with E14K, D386V, S449P, E524G counted along it
Experimental: as §2, §3, §4, §5

[9] = target: T6, Bacillus subtilis GlmS, wild type, SEQ ID NO:16 (Bacillus subtilis, UniProt P0CI73); experiment: biochemical
T6 construct: made in house; host or cells: E. coli 7107-24 (7101-17(DE3) with pET24d(+)/B. subtilis glmS from ATCC23856), crude cell extract
Experimental: as §2
(§6) Enzyme sensitivities to the reaction product glucosamine-6-P were examined.

[10] = target: E. coli GlmS mutant GlmS*4 (strain 2123-4) (Escherichia coli, UniProt P17169); experiment: GlmS sensitivity to inhibition by glucosamine-6-P; format: biochemical; conditions: 0-30 mM glucosamine-6-P; FIG. 5
Chain of E. coli GlmS mutant GlmS*4 (strain 2123-4) (P17169 whole entry, change not shown): as the sequence (P17169 whole entry, change not shown) above
Experimental: as §2, §3

[11] = target: E. coli GlmS mutant GlmS*59 (strain 2123-59) (Escherichia coli, UniProt P17169); experiment: GlmS sensitivity to inhibition by glucosamine-6-P; format: biochemical; conditions: 0-30 mM glucosamine-6-P; FIG. 5
Chain of E. coli GlmS mutant GlmS*59 (strain 2123-59) (P17169 whole entry, change not shown): as above
Experimental: as §2, §3

[12] = target: E. coli GlmS mutant GlmS*64 (strain 2123-64) (Escherichia coli, UniProt P17169); experiment: GlmS sensitivity to inhibition by glucosamine-6-P; format: biochemical; conditions: 0-30 mM glucosamine-6-P; FIG. 5
Chain of E. coli GlmS mutant GlmS*64 (strain 2123-64) (P17169 whole entry, change not shown): as above
Experimental: as §2, §3

[13] = target: E. coli glucosamine synthase GlmS*54, SEQ ID NO:6 (Ala39Thr, Arg250Cys, Gly472Ser) (Escherichia coli, UniProt P17169, A39T/G472S/R250C); experiment: Effects of phosphorylated sugars on glucosamine synthase, crude extract of lactose-induced 7107-18 cells; format: biochemical; conditions: 10 mM or relatively high concentration
Chain of E. coli glucosamine synthase GlmS*54, SEQ ID NO:6 (Ala39Thr, Arg250Cys, Gly472Ser) (P17169 whole entry A39T/R250C/G472S): as the sequence (P17169 whole entry, change not shown) above, with A39T, R250C, G472S counted along it
Experimental: as §1

[14] = test system: phosphoglucoisomerase (Pgi); experiment: Effect of phosphorylated amino sugars on phosphoglucoisomerase activity (FIG. 15); format: biochemical; conditions: in vitro
From the text: Therefore, effects of glucosamine-6-P and N-acetylglucosamine-6-P on several of the enzymes were examined.

[15] = target: phosphoglucoisomerase (Pgi) (Escherichia coli, UniProt P0A6T1); conditions: literature; cited from earlier work
Chain of phosphoglucoisomerase (Pgi) (Escherichia coli, UniProt P0A6T1) (P0A6T1 whole entry): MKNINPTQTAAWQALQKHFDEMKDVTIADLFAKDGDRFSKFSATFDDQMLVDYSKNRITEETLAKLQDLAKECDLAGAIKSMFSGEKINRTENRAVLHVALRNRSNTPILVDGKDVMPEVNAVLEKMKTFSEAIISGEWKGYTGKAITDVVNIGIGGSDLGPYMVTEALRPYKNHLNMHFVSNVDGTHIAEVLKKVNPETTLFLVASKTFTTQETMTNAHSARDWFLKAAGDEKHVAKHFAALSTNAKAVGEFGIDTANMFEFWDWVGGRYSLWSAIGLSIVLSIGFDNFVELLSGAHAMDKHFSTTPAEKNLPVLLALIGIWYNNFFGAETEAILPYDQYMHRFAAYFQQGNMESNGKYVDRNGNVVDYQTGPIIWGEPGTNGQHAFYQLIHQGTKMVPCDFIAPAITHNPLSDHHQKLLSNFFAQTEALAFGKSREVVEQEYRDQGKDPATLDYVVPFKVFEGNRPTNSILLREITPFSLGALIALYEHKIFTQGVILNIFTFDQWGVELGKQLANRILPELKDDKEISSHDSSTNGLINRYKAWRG

[16] = test system: phosphoglucoisomerase (Pgi); conditions: cited from earlier work
[17] = test system: glucosamine synthetase (GlmS); experiment: Sensitivity of GlmS enzymes to inhibition by glucosamine-6-P (initial velocity, Ki); format: biochemical, E. coli; B. subtilis; conditions: 0-30 mM glucosamine-6-P
Experimental: as §2, §6

[18] = test system: glucosamine synthetase (GlmS); format: biochemical, E. coli; B. subtilis; conditions: crude extracts
[19] = 0-30 mM glucosamine-6-P, FIG. 5

N[C@H]1C(O)O[C@H](COP(=O)(O)O)[C@@H](O)[C@@H]1O (some centres unmarked) [glucosamine-6-P, glucosamine-6-phosphate]
activity at 10000 µM [1]: 70%
activity at 20000 µM [1]: 46%
inhibition of glucosamine synthetase (in words) [1]: strong inhibition
inhibition of glucose-6-P dehydrogenase (zwf) [2]: more potent inhibitor of the enzyme than N-acetylglucosamine-6-P
Ki [3]: 560 µM
inhibition at 1000 µM ([3]; read-out: loss of activity at 1 mM glucosamine-6-P): ~50%
Ki [4]: 4000 µM
effect of glucosamine-6-P on enzyme activity ([4]; 1 mM glucosamine-6-P, saturating substrates): essentially has no effect on enzyme activity
remaining activity at 10000 µM ([4]; read-out: activity remaining at 10 mM glucosamine-6-P): ~50%
Ki [5]: 1600 µM
Ki [6]: 3500 µM
sensitivity to GlcN-6-P inhibition [6, 19]: reduced sensitivity to GlcN-6-P inhibition
Ki [7]: 1500 µM
Ki [8]: 1400 µM
sensitivity to GlcN-6-P inhibition [8, 19]: reduced sensitivity to GlcN-6-P inhibition
product resistance ([9]; 0, 2 and 4 mM glucosamine-6-P, FIG. 4): product resistance very comparable to the E. coli mutant GlmS enzymes
Ki ([9]; read-out: Ki (GlcN-6-P)): 1250 µM
sensitivity to GlcN-6-P inhibition [10]: reduced sensitivity to GlcN-6-P inhibition
sensitivity to GlcN-6-P inhibition [11]: reduced sensitivity to GlcN-6-P inhibition
sensitivity to GlcN-6-P inhibition [12]: reduced sensitivity to GlcN-6-P inhibition
inhibition of glucosamine synthetase (in words) [13]: strong inhibition on glucosamine synthetase at relatively high concentration
inhibition of Pgi (in words) [14]: Inhibition is observed
reported inhibitor of phosphoglucoisomerase (Pgi) [15]: inhibitor
inhibition of phosphoglucoisomerase (literature) [16]: reported as an inhibitor of Pgi; also recorded: reported as an inhibitor of phosphoglucoisomerase

B1: Wild type Bacillus GlmS: wild-type Bacillus subtilis glucosamine-6-phosphate synthase (SEQ ID NO:16), expressed in E. coli strain 7107-24 (protein, listed as Bacillus subtilis)
chain: MCGIVGYIGQLDAKEILLKGLEKLEYRGYDSAGIAVANEQGIHVFKEKGRIADLREVVDANVEAKAGIGHTRWATHGEPSYLNAHPHQSALGRFTLVHNGVIENYVQLKQEYLQDVELKSDTDTEVVVQVIEQFVNGGLETEEAFRKTLTLLKGSYAIALFDNDNRETIFVAKNKSPLLVGLGDTFNVVASDAMAMLQVTNEYVELMDKEMVIVTDDQVVIKNLDGDVITRASYIAELDASDIEKGTYPHYMLKETDEQPVVMRKIIQTYQDENGKLSVPGDIAAAVAEADRIYIIGCGTSYHAGLVGKQYIEMWANVPVEVHVASEFSYNMPLLSKKPLFIFLSQSGETADSRAVLVQVKALGHKALTITNVPGSTLSREADYTLLLHAGPEIAVASTKAYTAQIAVLAVLASVAADKNGINIGFDLVKELGIAANAMEALCDQKDEMEMIAREYLTVSRNAFFIGRGLDYFVCVEGALKLKEISYIQAEGFAGGELKHGTIALIEQGTPVFALATQEHVNLSIRGNVKEVAARGANTCIISLKGLDDADDRFVLPEVNPALAPLVSVVPLQLIAYYAALHRGCDVDKPRNLAKSVTVE
sensitivity to GlcN-6-P inhibition / product resistance (in words) [17]: product resistance very comparable to the E. coli mutant GlmS enzymes
Km (fructose-6-P) [18]: very similar to the mutant E. coli enzyme GlmS*54
